Test results taken from US20100137344A1, “INDUCTION OF ANALGESIA IN NEUROPATHIC PAIN” (University Court of the University of Edinburgh, priority 2006, published 2010).

Legend:
[1] = tested on: rats sensitised by the TRPA1 activator cinnamaldehyde; test: Cinnamaldehyde-induced sensitisation and its reversal by icilin (PWL, PWT); assay type: in vivo, rat; conditions: for Mean % reversal of mechanical sensitisation (after 15-30 mins) / Mean % reversal of thermal sensitisation (after 15-30 mins) / PWL (s) difference from control (+ icilin) / PWT (mN/mm^2) difference from control (+ icilin): icilin 10 nmol, i.t.
Procedure: Thermal sensitivity was assessed by measuring paw withdrawal latency (PWL, s) in response to a noxious thermal stimulus (Hargreaves' thermal stimulator, Linton Instrumentation, Diss, UK) directed to the hindpaw mid-plantar glabrous surface. Mechanical sensitivity was recorded as the paw withdrawal threshold (PWT, mN/mm^2) to calibrated von Frey filaments (Stoelting, Ill., US), as previously described^[39]. Sensitivity to noxious cold was assessed by placing animals in a waterbath with an aluminium floor containing 1 cm deep 4° C. water and counting the time the paw was held suspended over a 20 s period.
The following drugs were applied intrathecally in a 50 μl volume of saline-based vehicle at 37° C.: icilin (2.5-200 μM in saline with 0.2% dimethylformamide, DMF), LY 341495 (100 μM in saline), UBP 1112 (200 μM in saline), 2R,4R-APDC ((2R, 4R)-4-aminopyrrolidine-2,4-dicarboxylate), 300 μM in saline), ACPT-III ((1R,3R,4S)-1-aminocyclopentane-1,3,4-tricarboxylic acid), 3 mM in saline), AP-4, ((L-(1)-2-amino-4-phosphonobutyric acid), 3 mM in saline), naloxone (0.5 mM in saline), NMDA (75 μM in saline) and ACPC (1-aminocyclopropanecarboxylic acid, 15 μM in saline) (Tocris Cookson, Bristol, UK), (−)-menthol (1R,2S,5R-(−)-menthol, 4 mM in saline), cinnamaldehyde (1.5 mM in saline) and Ruthenium Red (5 μM in saline) (Sigma-Aldrich Co. Ltd, UK) and allicin (0.5 mM in saline with 0.5% DMF) and diallyl disulphide (DADS, 1 mM in saline with 0.5% DMF) (LKT Laboratories Inc., St Paul, Minn., USA). Drugs were injected into the L5/6 intrathecal space under brief halothane anaesthesia, using a 25-gauge needle microsyringe (BD Biosciences, Oxford, UK), as described previously^[39] in animals that were at peak levels of behavioural sensitisation. Behavioural reflex testing commenced 15 min following injection to allow recovery from anaesthesia^[40,41,42] and continued every 5 min thereafter until readings returned to baseline levels (n=6 in each case). We, and others^[40,41,42] find complete recovery from anaesthetic by 15 minutes. All appropriate controls were carried out to eliminate the possibility of effects due to vehicle or to injection procedure.
The TRPM8 channel activators, icilin and (−)-menthol were tested in CCI and naïve animals. The effects of icilin were additionally assessed in animals with CFA-induced inflammation or with lysolecithin-induced demyelination. Icilin was also co-administered with the μ-opioid receptor antagonist naloxone, the Group II metabotropic glutamate receptor (mGluR) antagonist, LY 341495, or the Group III mGluR antagonist, UBP 1112. The effects of these antagonists alone as well as effects of the Group II mGluR agonist, 2R,4R-APDC and the Group III mGluR agonists, ACPT-III and AP-4, were assessed in CCI animals. The TRPA1 channel activator, cinnamaldehyde, alone and with icilin, was tested in CCI animals and in naïve animals. Further TRPA1 channel activators, allicin and diallyl disulphide were assessed in naïve animals. Both icilin and cinnamaldehyde effects in CCI animals were also investigated in the additional presence of Ruthenium Red.
Icilin was applied at concentrations of 2.5-500 μM (in water with 0.2% DMF), by placing CCI or naïve rats unrestrained for 5 min in a 1 cm deep waterbath (sufficient to cover paws), which was thermostatically controlled to a temperature of 30° C., or by very lightly anaesthetising rats and immersing hindpaws in small tubes containing 5 ml icilin (500 μM-5 mM, with a vehicle of 45% dimethylformamide in 0.2% aqueous Tween 80) for 5 min, followed by sensory testing for 60-80 mins. The effects of (−)-menthol and its stereoisomers isomenthol (1S,2R,5R-menthol,) and (+)-menthol (1S,2R,5S(+)-menthol) (4-16 mM in 80% ethanol) were also assessed. Relevant vehicles were always assessed in similar experiments. As a contrast, the effect of cinnamaldehyde (1.5 mM in water) and the effect of cinnamaldehyde with additional icilin (80 μM in water with 0.2% DMF) were assessed in naïve animals. […]

[2] = tested on: CCI model of neuropathic pain; test: Cold allodynia in CCI model, Peltier controlled footplate; assay type: in vivo, rat; conditions: icilin 200 μM topical
Procedure: In the CCI model of neuropathic pain, cold allodynia was assessed by scoring the number of paw flick-associated paw withdrawals from a Peltier controlled footplate that was reduced in temperature from control (30° C.) to mild cooling (20° C.). Icilin (200 μM) was applied topically (as in FIG. 1). Values are shown as means±SEM, ipsilateral (⋄) to nerve injury. † Indicates statistically significant reversal of cool allodynia.

In the case of `O=C1NC(c2cccc([N+](=O)[O-])c2)=CCN1c1ccccc1O` [icilin, 1-(2′-hydroxyphenyl)-4-(3″-nitrophenyl)-1,2,3,6-tetrahydropyrimidin-2-one], the “Mean % reversal of mechanical sensitisation (after 15-30 mins)” value ([1]; Cinnamaldehyde (intrathecal)) is reported as 92.6 ± 2.8%, the “Mean % reversal of thermal sensitisation (after 15-30 mins)” value ([1]; Cinnamaldehyde (intrathecal)) is reported as 91.5 ± 4.1% and the “PWL (s) difference from control (+ icilin)” value ([1]; Cinnamaldehyde (intrathecal)) is reported as 0.5 ± 1.8 s. For the same compound, the “PWT (mN/mm^2) difference from control (+ icilin)” value ([1]; Cinnamaldehyde (intrathecal)) was 150.3 ± 125.2 mN/mm^2, the “Mean % reversal of mechanical sensitisation (after 15-30 mins)” value ([1]; Cinnamaldehyde (topical)) was 100.0 ± 0.0% and the “Mean % reversal of thermal sensitisation (after 15-30 mins)” value ([1]; Cinnamaldehyde (topical)) was 92.0 ± 6.1%. The “PWL (s) difference from control (+ icilin)” value ([1]; Cinnamaldehyde (topical)) was 0.4 ± 1.6 s, the “PWT (mN/mm^2) difference from control (+ icilin)” value ([1]; Cinnamaldehyde (topical)) was 0.0 ± 0.0 mN/mm^2 and the “effect on sensitisation by topical cinnamaldehyde” value ([1]; topical icilin 200 μM, data not shown) was “reversed”. The “analgesia against cold allodynia (paw withdrawals, footplate 30° C. to 20° C.)” value [2] was “provides analgesia against the cold allodynia”.
